Legend:
MCF-7 cells = assay: Breast Cancer Cell Viability Assays (MCF-7, CellTiter-Glo); type: cell-based; conditions: 5 days' compound exposure
Procedure, shortened: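 Percent viability, background-subtracted against untreated wells, was taken from CellTiter-Glo luminescence after 5 days' exposure of MCF-7 cells. Compounds were tested at eleven semilog concentrations, final 0.3–0.000003 μM, in RPMI containing 10% FBS.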

ER-α in MCF-7 cells = target: T1, ER-α in MCF-7 cells (Homo sapiens, UniProt P03372); assay: Breast Cancer Cell ER-α In Cell Western Assay (SP1); type: cell-based; conditions: 4 or 24 hr post compound addition
T1 construct: endogenous in cells; host or cells: MCF-7
T1 sequence (P03372 1-595): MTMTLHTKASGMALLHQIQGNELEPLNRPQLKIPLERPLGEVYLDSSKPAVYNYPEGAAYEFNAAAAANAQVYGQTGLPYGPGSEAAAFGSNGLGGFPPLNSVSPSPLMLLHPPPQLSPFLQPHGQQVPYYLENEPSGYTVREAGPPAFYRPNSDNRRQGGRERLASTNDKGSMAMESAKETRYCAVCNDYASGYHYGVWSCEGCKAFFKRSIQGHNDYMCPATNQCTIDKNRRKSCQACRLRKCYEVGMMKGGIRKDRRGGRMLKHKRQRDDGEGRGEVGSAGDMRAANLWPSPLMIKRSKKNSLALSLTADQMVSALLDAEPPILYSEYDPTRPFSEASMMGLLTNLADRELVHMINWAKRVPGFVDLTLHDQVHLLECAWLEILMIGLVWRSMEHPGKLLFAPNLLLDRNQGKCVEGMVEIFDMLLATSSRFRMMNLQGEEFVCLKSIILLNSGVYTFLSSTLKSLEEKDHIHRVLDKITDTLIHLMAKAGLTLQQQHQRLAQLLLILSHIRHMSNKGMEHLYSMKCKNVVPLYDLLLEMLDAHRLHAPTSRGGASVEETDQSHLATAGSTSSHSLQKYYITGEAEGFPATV
Procedure, shortened: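 ER-α levels quantified by in-cell western: SP1 signal normalised to DRAQ5 DNA stain, relative to untreated cells (% ER). Compounds at 0.3–0.000003 μM final, 11-point semilog series, 4 or 24 h exposure of MCF-7 cells grown in charcoal-stripped serum.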

`Fc1n[nH]c2ccc(/C(=C(/c3ccccc3)C3CCC3)c3ccc(/C=C/c4cnn[nH]4)cc3)cc12` [Example 286, 5-((E)-1-(4-((E)-2-(1H-1,2,3-Triazol-5-yl)vinyl)phenyl)-2-cyclobutyl-2-phenylvinyl)-3-fluoro-1H-indazole] was tested, and the “MCF7 Viability Assay Max Response” value (MCF-7 cells) was “++ (++ = a single % value ≧ 40%)”, the IC50 (MCF-7 cells; Homo sapiens, MCF7, 120 h) was at most 100 nM and the Emax (ER-α in MCF-7 cells; MCF7, SP1 antibody, read-out: ER-α In Cell Western Assay (SP1) Max Response) was at least 40%. For the same compound, the DC50 (ER-α in MCF-7 cells; SP1 antibody, read-out: ER-α In Cell Western Assay (SP1) IC50) was at most 100 nM.

Reference: patent publication US9499538B2, “Estrogen receptor modulators and uses thereof” (Seragon Pharmaceuticals, Inc., priority 2012, dated 2016)
